US9833497B2, “Human originated EGF domain proteins and use of the same” (CHENGDU SOURCEBIO LIMITED-LIABILITY COMPANY, priority 2013, dated 2017)

Tests used:
Type in all cases: cell-based
Serratia marcescens = test: MIC against Gram-negative bacteria: Serratia marcescens; conditions: 5×10^5 CFU/mL
Procedure, shortened: (§1)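 MIC, the lowest recombinant protein concentration giving no bacterial growth, found by two-fold serial dilution of human EGF-domain proteins in triplicate. Inoculum 5×10^5 CFU/mL in LB from cultures at McFarland 0.5; plates incubated at 37° C, 175 rpm shaking.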

Pseudomonas aeruginosa = test: MIC against Gram-negative bacteria: Pseudomonas aeruginosa; conditions: 5×10^5 CFU/mL
Procedure, shortened: as §1

Enterobacter cloacae = test: MIC against Gram-negative bacteria: Enterobacter cloacae; conditions: 5×10^5 CFU/mL
Procedure, shortened: as §1

Klebsiella pneumonia = test: MIC against Gram-negative bacteria: Klebsiella pneumonia; conditions: 5×10^5 CFU/mL
Procedure, shortened: as §1

Aeromonas hydrophila = test: MIC against Gram-negative bacteria: Aeromonas hydrophila; conditions: 5×10^5 CFU/mL
Procedure, shortened: as §1

E. coli DH5α = test: Antibacterial activity: MIC and growth curve against E. coli DH5α in 96-well plate; conditions: minimal inhibitory concentration against E. coli DH5α; 96-well plate, 5×10^5 CFU/mL, 37° C., judged after 8 h
Procedure, shortened: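 Log-phase bacteria (OD600 ~0.5) resuspended in LB at 5×10^5 CFU/mL, exposed to recombinant protein at 50, 25, 12.5 μg/mL final in triplicate, 37 °C shaking at 175 rpm. OD600 read every 30 min; MIC is lowest concentration showing no growth.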

Moraxella catarrhalis = test: MIC against Gram-negative bacteria: Moraxella catarrhalis; conditions: 5×10^5 CFU/mL
Procedure, shortened: as §1

Citrobacter diversus = test: MIC against Gram-negative bacteria: Citrobacter diversus; conditions: 5×10^5 CFU/mL
Procedure, shortened: as §1

E. coli BL21 = test: MIC against Gram-negative bacteria: E. coli BL21; conditions: 5×10^5 CFU/mL
Procedure, shortened: as §1

Proteus vulgaris = test: MIC against Gram-negative bacteria: Proteus vulgaris; conditions: 5×10^5 CFU/mL
Procedure, shortened: as §1

Proteus mirabilis = test: MIC against Gram-negative bacteria: Proteus mirabilis; conditions: 5×10^5 CFU/mL
Procedure, shortened: as §1

[1] = E. coli BL21, 10 h cultivation at 37° C.
[2] = Serratia marcescens, 10 h cultivation at 37° C.
[3] = Pseudomonas aeruginosa, 10 h cultivation at 37° C.
[4] = Enterobacter cloacae, 10 h cultivation at 37° C.
[5] = Klebsiella pneumonia, 10 h cultivation at 37° C.
[6] = Aeromonas hydrophila, 10 h cultivation at 37° C.
[7] = Moraxella catarrhalis, 10 h cultivation at 37° C.
[8] = Citrobacter diversus, 10 h cultivation at 37° C.
[9] = Proteus vulgaris, 10 h cultivation at 37° C.
[10] = Proteus mirabilis, 10 h cultivation at 37° C.

PRT672 (DIDECMLFGSEICKEGKCVNTQPGYECYCKQGFYYDGNLLECV; listed as Homo sapiens)
12.5 mg/L: MIC S. marcescens (Serratia marcescens; 96-well plate, 37° C., 10 h) | MIC P. aeruginosa (Pseudomonas aeruginosa; 96-well plate, 37° C., 10 h) | MIC E. cloacae (Enterobacter cloacae; 96-well plate, 37° C., 10 h) | MIC A. hydrophila (Aeromonas hydrophila; 96-well plate, 37° C., 10 h) | MIC (E. coli DH5α) | MIC M. catarrhalis (Moraxella catarrhalis; 96-well plate, 37° C., 10 h)
25 mg/L: MIC K. pneumonia (Klebsiella pneumonia; 96-well plate, 37° C., 10 h) | MIC C. diversus (Citrobacter diversus; 96-well plate, 37° C., 10 h) | MIC E. coli BL21 (E. coli BL21; 96-well plate, 37° C., 10 h) | MIC P. mirabilis (Proteus mirabilis; 96-well plate, 37° C., 10 h)
50 mg/L: MIC P. vulgaris (Proteus vulgaris; 96-well plate, 37° C., 10 h)

PRT733 (SSNGCSNNMNACQQICLPVPGGLFSCACATGFKLNPDNRSCS; listed as Homo sapiens)
25 mg/L: MIC S. marcescens (Serratia marcescens; 96-well plate, 37° C., 10 h) | MIC C. diversus (Citrobacter diversus; 96-well plate, 37° C., 10 h) | MIC P. mirabilis (Proteus mirabilis; 96-well plate, 37° C., 10 h)
50 mg/L: MIC P. aeruginosa (Pseudomonas aeruginosa; 96-well plate, 37° C., 10 h) | MIC E. cloacae (Enterobacter cloacae; 96-well plate, 37° C., 10 h) | MIC (E. coli DH5α) | MIC M. catarrhalis (Moraxella catarrhalis; 96-well plate, 37° C., 10 h)
12.5 mg/L: MIC K. pneumonia (Klebsiella pneumonia; 96-well plate, 37° C., 10 h) | MIC A. hydrophila (Aeromonas hydrophila; 96-well plate, 37° C., 10 h) | MIC E. coli BL21 (E. coli BL21; 96-well plate, 37° C., 10 h) | MIC P. vulgaris (Proteus vulgaris; 96-well plate, 37° C., 10 h)

PRT435 (DMDECSFSEFLCQHECVNQPGTYFCSCPPGYILLDDNRSCQ; listed as Homo sapiens)
12.5 mg/L: MIC (Pseudomonas aeruginosa; P. aeruginosa, 10 h cultivation at 37° C.) | MIC (Enterobacter cloacae; E. cloacae, 10 h cultivation at 37° C.) | MIC (E. coli DH5α) | MIC (Citrobacter diversus; C. diversus, 10 h cultivation at 37° C.) | MIC (Proteus mirabilis; P. mirabilis, 10 h cultivation at 37° C.)
50 mg/L: MIC (Serratia marcescens; S. marcescens, 10 h cultivation at 37° C.)
25 mg/L: MIC (Klebsiella pneumonia; K. pneumonia, 10 h cultivation at 37° C.) | MIC (Aeromonas hydrophila; A. hydrophila, 10 h cultivation at 37° C.) | MIC (Moraxella catarrhalis; M. catarrhalis, 10 h cultivation at 37° C.) | MIC (E. coli BL21; [1]) | MIC (Proteus vulgaris; P. vulgaris, 10 h cultivation at 37° C.)

PRT508 (CECSHLGNNCDPKTGRCICPPNTIGEKCSKCAPNTWGHSITTGCKA; listed as Homo sapiens)
100 mg/L: MIC against C. diversus (Citrobacter diversus; 96-well plate, 37° C., 10 h)
12.5 mg/L: MIC against E. cloacae (Enterobacter cloacae; 96-well plate, 37° C., 10 h) | MIC (E. coli DH5α) | MIC against P. vulgaris (Proteus vulgaris; 96-well plate, 37° C., 10 h) | MIC against P. mirabilis (Proteus mirabilis; 96-well plate, 37° C., 10 h)
25 mg/L: MIC against S. marcescens (Serratia marcescens; 96-well plate, 37° C., 10 h) | MIC against K. pneumonia (Klebsiella pneumonia; 96-well plate, 37° C., 10 h) | MIC against E. coli BL21 (E. coli BL21; 96-well plate, 37° C., 10 h)
50 mg/L: MIC against P. aeruginosa (Pseudomonas aeruginosa; 96-well plate, 37° C., 10 h) | MIC against A. hydrophila (Aeromonas hydrophila; 96-well plate, 37° C., 10 h) | MIC against M. catarrhalis (Moraxella catarrhalis; 96-well plate, 37° C., 10 h)

PRT1367 (YPACPENCSGHGECVRGVCQCHEDFMSEDCS; listed as Homo sapiens)
25 mg/L: MIC against S. marcescens (Serratia marcescens; [2]) | MIC against P. aeruginosa (Pseudomonas aeruginosa; [3]) | MIC against E. cloacae (Enterobacter cloacae; [4]) | MIC (E. coli DH5α)
50 mg/L: MIC against A. hydrophila (Aeromonas hydrophila; [6]) | MIC against M. catarrhalis (Moraxella catarrhalis; [7]) | MIC against E. coli BL21 (E. coli BL21; [1]) | MIC against P. vulgaris (Proteus vulgaris; [9])
12.5 mg/L: MIC against K. pneumonia (Klebsiella pneumonia; [5]) | MIC against C. diversus (Citrobacter diversus; [8]) | MIC against P. mirabilis (Proteus mirabilis; [10])

PRT76 (EVDLCYSRPCGPHGRCRSREGGYTCLCRDGYTGEHCE; listed as Homo sapiens)
50 µg/mL: MIC (μg/mL) S. marcescens (Serratia marcescens; Serratia marcescens, 96-well plate, 37° C., 10 h)
12.5 µg/mL: MIC (μg/mL) K. pneumonia (Klebsiella pneumonia; Klebsiella pneumonia, 96-well plate, 37° C., 10 h) | MIC (μg/mL) A. hydrophila (Aeromonas hydrophila; Aeromonas hydrophila, 96-well plate, 37° C., 10 h) | MIC (μg/mL) E. coli BL21 (E. coli BL21; E. coli BL21, 96-well plate, 37° C., 10 h) | MIC (μg/mL) P. vulgaris (Proteus vulgaris; Proteus vulgaris, 96-well plate, 37° C., 10 h) | MIC (μg/mL) P. mirabilis (Proteus mirabilis; Proteus mirabilis, 96-well plate, 37° C., 10 h)
25 mg/L: MIC (E. coli DH5α)
25 µg/mL: MIC (μg/mL) P. aeruginosa (Pseudomonas aeruginosa; Pseudomonas aeruginosa, 96-well plate, 37° C., 10 h) | MIC (μg/mL) E. cloacae (Enterobacter cloacae; Enterobacter cloacae, 96-well plate, 37° C., 10 h) | MIC (μg/mL) C. diversus (Citrobacter diversus; Citrobacter diversus, 96-well plate, 37° C., 10 h)
100 µg/mL: MIC (μg/mL) M. catarrhalis (Moraxella catarrhalis; Moraxella catarrhalis, 96-well plate, 37° C., 10 h)

PRT1451 (EARWCSECHSNATCTEDEAVTTCTCQEGFTGDGLTCV; listed as Homo sapiens)
12.5 mg/L: MIC against S. marcescens (Serratia marcescens; [2]) | MIC against K. pneumonia (Klebsiella pneumonia; [5]) | MIC against A. hydrophila (Aeromonas hydrophila; [6]) | MIC against M. catarrhalis (Moraxella catarrhalis; [7]) | MIC against E. coli BL21 (E. coli BL21; [1]) | MIC against P. vulgaris (Proteus vulgaris; [9]) | MIC against P. mirabilis (Proteus mirabilis; [10])
25 mg/L: MIC against P. aeruginosa (Pseudomonas aeruginosa; [3]) | MIC against E. cloacae (Enterobacter cloacae; [4]) | MIC (E. coli DH5α) | MIC against C. diversus (Citrobacter diversus; [8])
